Experiments:
Format in all cases: cell-based
[1] = system: UCI101 ovarian cancer cells; test: Western blot of signal transduction events, UCI101
Outline: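 UCI101 cells exposed to 0.1 μM compound for 0, 4, 8, 16 and 36 h, then harvested and analysed by Western blot. Probes covered G2-M regulators Cdc2, Cdc25c and BubR1, plus Akt phosphorylation.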

MDA-MB231 cells = test: immunofluorescent staining of tubulin, MDA-MB231; details: CA4 10 nM, stilbene 4a 100 nM, vincristine 100 nM, 5b 3 μM; 16 hours
Description: Nuclei were stained with 4′,6-diamidino-2-phenylindole (DAPI). Control cells show the reticular pattern of the microtubule network.

[2] = system: SKOV3 ovarian cancer cells; test: Alamar Blue cell growth inhibition, SKOV3
Outline: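 SKOV3 cells at 50% confluence were treated 48 h with compounds, against 0.1% DMSO vehicle controls. Growth was read by Alamar Blue absorbance at 570 and 600 nm, with % growth inhibition from the manufacturer's extinction-coefficient formula. Each concentration was run in triplicate.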

[3] = system: human umbilical vein endothelial cells (HUVECs); test: HUVEC flow cytometry and tubulin staining; details: 30 nM, 16 hours
Experimental: (a) Flow cytometry analysis. HUVECs were treated with 30 nM of stilbene 4a for 16 hours followed by staining with PI and subjected to flow cytometry analysis. A large subG0/1 population, representing apoptotic cells, appeared along with reverse of the G1/G2 ratio. (b) Immunofluorescent staining of the HUVECs with antibody against tubulin. Nuclei were counter-stained with DAPI. Stilbene 4a disrupted microtubules at a concentration of 30 nM or higher. Stilbene 4c disrupted microtubules at 100 nM.
In order to establish that stilbenes suppress tumor perfusion by damaging tumor endothelial cells, we first incubated human vascular endothelial cells (HUVECs) with various concentrations of stilbenes in vitro. After 24 hours of incubation, cells were processed for flow cytometry analysis with propidium iodide staining. Cells were also fixed with 2% paraformaldehyde and stained with anti-tubulin antibody to examine tubulin disruption and with DAPI to analyze nuclear fragmentation.

UCI101 cells [4] = test: immunofluorescent staining of tubulin, UCI101; details: CA4 10 nM, stilbene 4a 100 nM, 5b 3 μM; 16 hours
Description: Nuclei were stained with DAPI.

[5] = system: UCI101 ovarian cancer cells; test: Alamar Blue cell growth inhibition, UCI101; details: UCI101, 48 hours
Outline: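 UCI101 cells at 50% confluence treated 48 h in triplicate with compound (0–10 μM series) or 0.1% DMSO vehicle as 100% control. Alamar Blue added at 1/10 volume for 2 h; absorbance read at 570 and 600 nm, percent growth inhibition from the manufacturer's formula.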

UCI101 cells [6] = test: phospho-histone 3B mitotic marker staining
Experimental: (a) In vitro sensitivity of UCI101 cells toward three potential stilbene prodrugs, 5a-c, was tested in 96-well plates using Alamar Blue™ assays to determine cell growth inhibition. […] (b) 5b induces cell cycle change and apoptosis in UCI101 cells. Cells were incubated with 5b at 1, 3, 10 μM for 16 hours followed by PI staining and flow cytometry analysis. A subG0/1 population, representing apoptotic cells, appeared along with a decrease of the G1/G2 ratio after cells were treated with 3 μM 5b. Higher concentration (10 μM) of 5b completely killed cells, as was the case with stilbene 4a at […]. (c) Cells treated with stilbene 4a and 5b were stained with phospho-histone 3B, a mitotic marker. The positive signals of phospho-histone 3B were shown in green and nuclei were stained with DAPI in blue. […] (d) In vivo efficacy of 5b compared with stilbene 4a. Nude mice were injected with UCI101 ovarian cancer cells and treated with 7 doses of 5b,c or stilbene 4a every 2-3 days. Tumor volume was calculated and plotted against days.
The in vitro efficacy of these three compounds was tested in UCI101 cells in 96-well plate format and stained with Alamar blue™, The growth suppression was calculated as was done similarly to other test compounds. […] A dose response was then performed with various concentrations of 5b in vitro. […]

`COc1cc(/C=C\c2ccc(OC)c(N)c2)cc(OC)c1` [4a, (Z)-5-[2-(3,5-Dimethoxy-phenyl)-vinyl]-2-methoxy-phenylamine] was tested, and the “phosphorylation of Stat3” value ([1]; 0.1 μM) was “transient increase in phosphorylation at 4 and 8 hours”, the “phosphorylation of Cdc2 at Tyr15” value ([1]; 0.1 μM, 16 hours) was “decreased dramatically” and the “phosphorylation of Chk1” value ([1]; 36 hours) was “increased uniquely at 36 hours”. The microtubule pattern (MDA-MB231 cells) was “did not completely disrupt microtubule formation”, the IC50 ([2]; Homo sapiens, SK-OV-3) was 50 to 100 nM and the “effective / active concentration” value ([2]; SKOV3, 48 hours) was 0.1 µM. The “apoptosis of HUVECs (flow cytometry)” value [3] was “induced a significant apoptotic population of subG0/1 cells”, the microtubule pattern (UCI101 cells [4]) was “partial disruption of microtubules” and the “relative potency / activity” value [5] was “about equal in their potency”. For the same compound, the “phospho-histone 3B positive cells” value (UCI101 cells [6]) was “dramatic increase in positive cells”.
